Measurements from the supplement of paper PMC10307832.

Tests used:
Test in all cases: relative viability (nuclei count vs DMSO), 5 days (fraction); higher = more cells survive
Midostaurin + Olaparib = compound: CO[C@@H]1[C@H](N(C)C(=O)c2ccccc2)C[C@H]2O[C@]1(C)n1c3ccccc3c3c4c(c5c6ccccc6n2c5c31)C(=O)NC4 [Midostaurin] + O=C(c1cc(Cc2n[nH]c(=O)c3ccccc23)ccc1F)N1CCN(C(=O)C2CC2)CC1 [Olaparib] (partner 8 µM)
Outline: (§1)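 Lung cancer cell lines were seeded in 1536-well plates and dosed by pin tool the next day, with either a single drug or a fixed anchor-drug dose combined with five library-drug doses (not always all listed) spaced in √10 steps. Five days later, one step fixed the cells and stained their nuclei (final 0.05% Triton X-100, 1% formaldehyde, 1 ug/ml Hoechst), and nuclei were counted on 4× images. Relative viability is the nuclei count in treated wells divided by the count in vehicle wells, and each value is the median of duplicate plates.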

Midostaurin + Lapatinib = compound: CO[C@@H]1[C@H](N(C)C(=O)c2ccccc2)C[C@H]2O[C@]1(C)n1c3ccccc3c3c4c(c5c6ccccc6n2c5c31)C(=O)NC4 [Midostaurin] + CS(=O)(=O)CCNCc1ccc(-c2ccc3ncnc(Nc4ccc(OCc5cccc(F)c5)c(Cl)c4)c3c2)o1 [Lapatinib] (partner 2 µM)
Outline: as §1

[1] = compound: COc1cc(-c2nn([C@H]3CC[C@H](N4CCN(C(C)=O)CC4)CC3)c3ncnc(N)c23)ccc1NC(=O)c1cc2ccccc2n1C + COc1cccc2cc(-c3nc([C@H]4CC[C@H](C(=O)O)CC4)n4ncnc(N)c34)[nH]c12 [OSI-027] (partner 0.5 µM)
Outline: as §1

[2] = compound: COc1cc(-c2nn([C@H]3CC[C@H](N4CCN(C(C)=O)CC4)CC3)c3ncnc(N)c23)ccc1NC(=O)c1cc2ccccc2n1C + Cc1cc(Nc2cc(N3CCN(C)CC3)nc(Sc3ccc(NC(=O)C4CC4)cc3)n2)n[nH]1 [Tozasertib] (partner 0.1 µM)
Outline: as §1

[3] = compound: COc1cc(-c2nn([C@H]3CC[C@H](N4CCN(C(C)=O)CC4)CC3)c3ncnc(N)c23)ccc1NC(=O)c1cc2ccccc2n1C + Nc1ncn([C@H]2C[C@H](O)[C@@H](CO)O2)c(=O)n1 [Decitabine] (partner 2 µM)
Outline: as §1

Cell Line	relative viability (Midostaurin + Olaparib; first compound 0.01 µM)	relative viability (Midostaurin + Olaparib; first compound 0.03162 µM)	relative viability (Midostaurin + Olaparib; first compound 0.1 µM)	relative viability (Midostaurin + Olaparib; first compound 0.3162 µM)	relative viability (Midostaurin + Lapatinib; first compound 0.01 µM)	relative viability (Midostaurin + Lapatinib; first compound 0.03162 µM)	relative viability (Midostaurin + Lapatinib; first compound 0.1 µM)	relative viability (Midostaurin + Lapatinib; first compound 0.3162 µM)	relative viability ([1]; first compound 0.0128 µM)	relative viability ([1]; first compound 0.04048 µM)	relative viability ([1]; first compound 0.128 µM)	relative viability ([1]; first compound 1.28 µM)	relative viability ([2]; first compound 0.0128 µM)	relative viability ([2]; first compound 0.04048 µM)	relative viability ([2]; first compound 0.128 µM)	relative viability ([2]; first compound 1.28 µM)	relative viability ([3]; first compound 0.0128 µM)	relative viability ([3]; first compound 0.04048 µM)	relative viability ([3]; first compound 0.128 µM)	relative viability ([3]; first compound 1.28 µM)
LK-2	0.686	0.612	0.878	0.791	0.916	0.901	0.921	0.822	0.267	0.187	0.198	0.184	0.195	0.155	0.184	0.165	0.339	0.253	0.288	0.248
LOU-NH91	0.922	0.828	0.88	0.943	0.736	0.736	0.811	0.924	0.729	0.803	0.731	0.745	0.664	0.598	0.699	0.671	0.792	0.898	0.842	0.804
LU99A	0.261	0.295	0.257	0.207	0.983	1.04	1.02	0.993	0.307	0.323	0.329	0.312	0.281	0.28	0.274	0.252	0.808	0.601	0.949	0.994
LXF-289	1.13	1.05	1.04	0.992	0.92	0.888	0.866	0.951	0.875	0.76	0.71	0.652	0.219	0.217	0.17	0.0946	0.419	0.368	0.369	0.362
NCI-H23	0.317	0.296	0.296	0.223	1.05	1	1	0.949	0.646	0.368	0.578	0.415	0.359	0.444	0.309	0.266	0.283	0.291	0.291	0.298
NCI-H322M	0.703	0.72	0.698	0.779	0.621	0.465	0.627	0.695	0.584	0.509	0.5	0.526	0.509	0.472	0.445	0.341	0.659	0.682	0.648	0.63
NCI-H358	0.511	0.48	0.531	0.575	0.582	0.391	0.584	0.499	0.645	0.618	0.508	0.28	0.107	0.104	0.103	0.0932	0.224	0.206	0.246	0.167
